# From patent publication US6943022B2, “Inhibition of apoptosis by the expression of antisense RNA of caspase-3” (Korea Advanced Institute of Science and Technology, priority 2001, dated 2005)
# How the values were obtained:
# [1] = tested on: recombinant CHO cells; experiment: LDH activity in culture supernatant (degree of cell lysis) after sodium butyrate; format: cell-based; settings: control cells, first two days after addition of 5 mM sodium butyrate
# Source text: The integrity of protein product is influenced by the degree of cell lysis because some proteolytic enzymes and glycosidases released from the cellular membrane ruptured-dead cells influence the molecular integrity of the product (Goldman, et al., 1997, Cytotechnology, 23, 103-111; Hansen, et al., 1997, Cytotechnology, 24, 227-234; Teige, et al., 1994, J. Biotechnol., 34, 101-105). The amount of lysed cells can be determined by measuring the amount of lactate dehydrogenase (LDH) released into the culture supernatant (Cruz, et al., 2000, Biotechnol. Lett., 22, 677-682). Thus, to determine the degree of cell lysis, the LDH activity in culture supernatant was measured daily after treatment with 5 mM of sodium butyrate.
# [2] = tested on: recombinant CHO cells; format: cell-based
# Procedure: The present inventors confirmed whether the expression of antisense RNA of caspase-3 could inhibit the NaBu-induced apoptosis. Particularly, control cells and B3 cells obtained in Example <1-1> were seeded at a concentration of 4×10^4 cells/ml in 6-well culture plates containing 5 ml of an alpha-minimum essential medium supplemented with 5% dialyzed fetal bovine serum and 0.32 μM of methotrexate. After three days of cultivation, the spent medium was replaced with fresh medium containing 0-5 mM of sodium butyrate. Cells were harvested periodically. Viable cells were distinguished from dead cells using the trypan blue dye exclusion method to determine cell viability. In addition, secreted humanized antibody concentration was measured by enzyme-linked immunosorbent assay (ELISA).
compound,measurement,setting,value
CCCC(=O)[O-].[Na+] [sodium butyrate],LDH activity in culture supernatant,[1],increased rapidly
same,cytotoxic effect on the cell growth,"[2]; 0-5 mM sodium butyrate, control and B3 CHO cells",dose-dependent
same,cellular apoptosis,[2]; 5 mM sodium butyrate,induced
same,viability of control cells,"[2]; three days after treatment with 5 mM sodium butyrate, control cells (null pcDNA3.1-zeo(+))",under 50%
